Patent US20230346831A1, “METHODS FOR TREATING […] USING LOW DOSE CARBON MONOXIDE” (priority 2020, published 2023)

Key:
8988T/TGL cells = experiment: orthotopic (intrasplenic) model of liver metastasis of PDAC; type: in vivo; details: 8988T/TGL cells intrasplenic, NSG mice, 5 days a week
Method: NSG mice were generated by the Jackson Laboratory. All mice were housed in accordance with the institutional guidelines. […] Zhang, & Y. N. Du, Methods Mol Biol 1882, 309-320 (2019)). The spleen was removed after the injection. Starting one day after injection, mice were randomized into two groups. One group was kept in a regular mouse holding room (control), and the other group was put into a chamber delivering 250 ppm CO 3 hours daily. Mice were subjected to bioluminescent imaging using the In Vivo Imaging System Spectrum (PerkinElmer, Waltham, MA) at 0, 1, 3 days and then weekly after tumor cells were injected until the final time points, as described previously by Y. C. Du, D. S. Klimstra, & H. Varmus, PLoS One 4, e6932 (2009)). Luciferase signals were transformed to nature log scale before analysis. GEE method was used to test the overall difference of tumor growth over time. All analyses were performed in statistical software SAS Version 9.4 (SAS Institute, Cary, NC).
Mouse tissues were removed and fixed in 10% buffered formalin overnight at room temperature. […] Tumor number and tumor size were quantified by scanning the whole tissue slide of each mouse under microscope. The size of tumor area of each tumor was measured by the cellSens imaging software (Olympus, Tokyo, Japan). […]

CYP1B1 = experiment: Western blot analysis; type: cell-based, human; details: 250 ppm CO
Method: 1.5 × 10^6 cells were seeded in 6-cm cell culture plates with DMEM containing 10% FBS, 0.2 mM L-glutamine and 1% penicillin/streptomycin. Additionally, MCF7/TGL/pQ was cultured in media containing 0.5 µgml^-1 puromycin and 25 mM HEPES. After 16 hours of incubation, cells were lysed with RIPA buffer (0.1% SDS, 1% TritonX-100, 0.5% sodium deoxycholate, 25 mM Tris pH 8.0, 150 mM NaCl, and 1 mM EDTA) supplemented with a protease inhibitor mixture and PhosSTOP (Roche, Basel, Switzerland). Proteins were quantified with Bradford assay (Bio-Rad, Hercules CA). Equal amounts of proteins were separated with SDS-PAGE and transferred to nitrocellulose membranes. To visualize equal protein loading, blots were stained with Ponceau S. Blots were incubated in 5% non-fat milk in TBST, probed with primary antibodies to CYP1B1 (1:1,000, Abcam, Cambridge, United Kingdom, Cat. No. 32649), HO-1 (1:1,000, Santa Cruz Biotechnology, Dallas, TX, Cat. No. 136960), BACH1 (1:1,000, ABclonal, Woburn, MA, Cat. No. A5393), E-cadherin (1:1,1000, BD Biosciences (Cat. No. 610181), San Jose, CA), α-tubulin (1:1,000, Sigma (Cat. No. T5168), St. Louis MO), and vimentin (1:1,000, Cell Signaling Tech (Cat. No. 5741), Danvers, MA), and then were incubated with horseradish peroxidase-conjugated secondary antibodies. Protein bands were visualized by enhanced chemical luminescence (Pierce, Dallas, TX). […]

FLVCR1 = experiment: expression of heme exporter; type: cell-based, human; details: MCF7/TGL and MDA-MB-231/TGL cells; with or without 250 ppm CO
From the text: To investigate how CO reduces heme levels, whether CO decreased the transportation of heme into the cytosol was examined. […] Furthermore, heme oxygenases (HO-1, HO-2, and HO-3) cleave heme into 3 products: CO, ferrous ions (Fe2+), and biliverdin. […] So, whether there was an increase of HO-1 expression by low-dose CO treatment that could contribute to heme degradation was examined. […] Likewise, changes in protein levels of Bach 1 (a physiological repressor of HO-1 and a pro-metastatic transcription factor, whose degradation is reported to be mediated by heme in Nrf2-mutated lung cancer) was not detected (FIG. 4E). […] Taken together, CO decreased heme importers to lower intracellular heme levels, which inhibited cancer cell migration.

[C-]#[O+] [CO, Carbon monoxide]
metastatic tumor numbers in liver sections (histological analysis) (8988T/TGL cells; 250 ppm CO 3 hours daily, 19 days after the injection): significantly less
bioluminescence over the time course, control vs CO group (8988T/TGL cells; 250 ppm CO gas 3 hours daily, P < 0.0001, GEE method): Significant difference
CYP1B1 protein levels (CYP1B1; MCF7 and MDA-MB-231 cells): significantly reduced
CYP1B1 protein levels (CYP1B1; PDAC 8988T cells): reduced
FLVCR1 (heme exporter) expression (FLVCR1): no significant/consistent changes
